Results published in PubChem BioAssay AID2060609 (Molecular Pharmacology Branch, DTP, NCI, 2025).

Test system: 855422-203-R-J1-PDC complex spheroids, viability
Assay: Anticancer human tumor 855422-203-R-J1-PDC patient-derived bladder carcinoma cell line growth inhibition [CLK]
Conditions: for IC50: curve of first compound; for viability, T/C: stronger effect = lower value
How it was run: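 Multi-cell-type spheroids combined patient-derived tumor cells with HUVEC endothelial cells and human mesenchymal stem cells. Paired agents were dosed in half-log steps down from about clinical Cmax, or from 10 microM where Cmax was unknown.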

[1] = second compound 0.0316 µM, first compound 0.0316 µM
[2] = second compound 0.0316 µM, first compound 0.1 µM
[3] = second compound 0.0316 µM, first compound 0.316 µM
[4] = second compound 0.0316 µM, first compound 1 µM
[5] = second compound 0.0316 µM, first compound 3.16 µM
[6] = second compound 0.0316 µM, first compound 10 µM
[7] = second compound 0.1 µM, first compound 0.0316 µM
[8] = second compound 0.1 µM, first compound 0.1 µM
[9] = second compound 0.1 µM, first compound 0.316 µM
[10] = second compound 0.1 µM, first compound 1 µM
[11] = second compound 0.1 µM, first compound 3.16 µM
[12] = second compound 0.1 µM, first compound 10 µM
[13] = second compound 0.316 µM, first compound 0.0316 µM
[14] = second compound 0.316 µM, first compound 0.1 µM
[15] = second compound 0.316 µM, first compound 0.316 µM
[16] = second compound 0.316 µM, first compound 1 µM
[17] = second compound 0.316 µM, first compound 3.16 µM
[18] = second compound 0.316 µM, first compound 10 µM
[19] = second compound 1 µM, first compound 0.0316 µM
[20] = second compound 1 µM, first compound 0.1 µM
[21] = second compound 1 µM, first compound 0.316 µM
[22] = second compound 1 µM, first compound 1 µM
[23] = second compound 1 µM, first compound 3.16 µM
[24] = second compound 1 µM, first compound 10 µM
[25] = second compound 3.16 µM, first compound 0.0316 µM
[26] = second compound 3.16 µM, first compound 0.1 µM
[27] = second compound 3.16 µM, first compound 0.316 µM
[28] = second compound 3.16 µM, first compound 1 µM
[29] = second compound 3.16 µM, first compound 3.16 µM
[30] = second compound 3.16 µM, first compound 10 µM
[31] = second compound 10 µM, first compound 0.0316 µM
[32] = second compound 10 µM, first compound 0.1 µM
[33] = second compound 10 µM, first compound 0.316 µM
[34] = second compound 10 µM, first compound 1 µM
[35] = second compound 10 µM, first compound 3.16 µM
[36] = second compound 10 µM, first compound 10 µM
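Also: spheroids exposed to drugs for seven days before readout.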
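For viability, T/C in this document: 100% = DMSO vehicle control wells.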

`CC(C)CC(NC(=O)C(Cc1ccccc1)NC(=O)c1cnccn1)B(O)O` (stereo unspecified) + CN1CCN(c2cc(C(=O)Nc3cc4cc(-c5cnn(C)c5)ccc4cn3)ccn2)CC1 showed an IC50 (second compound 0.0316 µM) of under 0.949 nM, an IC50 (second compound 0.1 µM) of under 0.949 nM and an IC50 (second compound 0.316 µM) of under 0.949 nM. It also gave an IC50 (second compound 1 µM) of under 0.949 nM, an IC50 (second compound 3.16 µM) of under 0.949 nM and an IC50 (second compound 10 µM) of under 0.949 nM. It also gave a viability, T/C (second compound 0.0316 µM, first compound 0.000949 µM) of 2.28%, a viability, T/C (second compound 0.0316 µM, first compound 0.003 µM) of 0.31% and a viability, T/C (second compound 0.0316 µM, first compound 0.00949 µM) of 0.27%. The viability, T/C (second compound 0.0316 µM, first compound 0.03 µM) was 0.43%, the viability, T/C (second compound 0.0316 µM, first compound 0.0949 µM) was 0.41% and the viability, T/C (second compound 0.0316 µM, first compound 0.3 µM) was 0.27%. It also gave a viability, T/C (second compound 0.1 µM, first compound 0.000949 µM) of 2.61%, a viability, T/C (second compound 0.1 µM, first compound 0.003 µM) of 0.37% and a viability, T/C (second compound 0.1 µM, first compound 0.00949 µM) of 0.29%. For the same compound, the viability, T/C (second compound 0.1 µM, first compound 0.03 µM) was 0.43%, the viability, T/C (second compound 0.1 µM, first compound 0.0949 µM) was 0.35% and the viability, T/C (second compound 0.1 µM, first compound 0.3 µM) was 0.28%. For the same compound, the viability, T/C (second compound 0.316 µM, first compound 0.000949 µM) was 0.57%, the viability, T/C (second compound 0.316 µM, first compound 0.003 µM) was 0.22% and the viability, T/C (second compound 0.316 µM, first compound 0.00949 µM) was 0.27%. For the same compound, the viability, T/C (second compound 0.316 µM, first compound 0.03 µM) was 0.27%, the viability, T/C (second compound 0.316 µM, first compound 0.0949 µM) was 1.06% and the viability, T/C (second compound 0.316 µM, first compound 0.3 µM) was 0.19%. The viability, T/C (second compound 1 µM, first compound 0.000949 µM) was 0.21%, the viability, T/C (second compound 1 µM, first compound 0.003 µM) was 0.19% and the viability, T/C (second compound 1 µM, first compound 0.00949 µM) was 0.12%. It also gave a viability, T/C (second compound 1 µM, first compound 0.03 µM) of 0.19%, a viability, T/C (second compound 1 µM, first compound 0.0949 µM) of 0.16% and a viability, T/C (second compound 1 µM, first compound 0.3 µM) of 0.16%. For the same compound, the viability, T/C (second compound 3.16 µM, first compound 0.000949 µM) was 0.36%, the viability, T/C (second compound 3.16 µM, first compound 0.003 µM) was 0.15% and the viability, T/C (second compound 3.16 µM, first compound 0.00949 µM) was 1.95%. It also gave a viability, T/C (second compound 3.16 µM, first compound 0.03 µM) of 0.11%, a viability, T/C (second compound 3.16 µM, first compound 0.0949 µM) of 0.78% and a viability, T/C (second compound 3.16 µM, first compound 0.3 µM) of 0.11%. The viability, T/C (second compound 10 µM, first compound 0.000949 µM) was 0.29%, the viability, T/C (second compound 10 µM, first compound 0.003 µM) was 0.19% and the viability, T/C (second compound 10 µM, first compound 0.00949 µM) was 2.1%. For the same compound, the viability, T/C (second compound 10 µM, first compound 0.03 µM) was 0.2%, the viability, T/C (second compound 10 µM, first compound 0.0949 µM) was 0.22% and the viability, T/C (second compound 10 µM, first compound 0.3 µM) was 0.32%.

`CC1(C)CCC(CN2CCN(c3ccc(C(=O)NS(=O)(=O)c4ccc(NCC5CCOCC5)c([N+](=O)[O-])c4)c(Oc4cnc5[nH]ccc5c4)c3)CC2)=C(c2ccc(Cl)cc2)C1` + CN1CCN(c2cc(C(=O)Nc3cc4cc(-c5cnn(C)c5)ccc4cn3)ccn2)CC1 was tested, and the IC50 (second compound 0.0316 µM) was 6060 nM, the IC50 (second compound 0.1 µM) was 5320 nM and the IC50 (second compound 0.316 µM) was under 31.6 nM. For the same compound, the IC50 (second compound 1 µM) was under 31.6 nM, the IC50 (second compound 3.16 µM) was under 31.6 nM and the IC50 (second compound 10 µM) was under 31.6 nM. It also gave a viability, T/C [1] of 97.3%, a viability, T/C [2] of 96.2% and a viability, T/C [3] of 115%. The viability, T/C [4] was 116%, the viability, T/C [5] was 137% and the viability, T/C [6] was 1.97%. For the same compound, the viability, T/C [7] was 85.1%, the viability, T/C [8] was 81.9% and the viability, T/C [9] was 104%. It also gave a viability, T/C [10] of 88.2%, a viability, T/C [11] of 93% and a viability, T/C [12] of 1.08%. For the same compound, the viability, T/C [13] was 10.7%, the viability, T/C [14] was 11.8% and the viability, T/C [15] was 8.68%. The viability, T/C [16] was 10.2%, the viability, T/C [17] was 10.3% and the viability, T/C [18] was 0.47%. For the same compound, the viability, T/C [19] was 0.26%, the viability, T/C [20] was 0.89% and the viability, T/C [21] was 0.24%. It also gave a viability, T/C [22] of 0.46%, a viability, T/C [23] of 0.51% and a viability, T/C [24] of 0.11%. The viability, T/C [25] was 0.63%, the viability, T/C [26] was 2.77% and the viability, T/C [27] was 0.71%. It also gave a viability, T/C [28] of 0.87%, a viability, T/C [29] of 1.82% and a viability, T/C [30] of 1.58%. For the same compound, the viability, T/C [31] was 0.52%, the viability, T/C [32] was 0.31% and the viability, T/C [33] was 0.36%. The viability, T/C [34] was 0.45%, the viability, T/C [35] was 0.29% and the viability, T/C [36] was 0.25%.

Work on `CC1COCCN1c1cc(C2(S(C)(=N)=O)CC2)nc(-c2ccnc3[nH]ccc23)n1` (stereo unspecified) + CN1CCN(c2cc(C(=O)Nc3cc4cc(-c5cnn(C)c5)ccc4cn3)ccn2)CC1 yielded an IC50 (second compound 0.0316 µM) of 2250 nM, an IC50 (second compound 0.1 µM) of 1850 nM and an IC50 (second compound 0.316 µM) of under 31.6 nM. The IC50 (second compound 1 µM) was under 31.6 nM, the IC50 (second compound 3.16 µM) was under 31.6 nM and the IC50 (second compound 10 µM) was under 31.6 nM. For the same compound, the viability, T/C [1] was 103%, the viability, T/C [2] was 117% and the viability, T/C [3] was 89.6%. The viability, T/C [4] was 93%, the viability, T/C [5] was 32% and the viability, T/C [6] was 10.6%. It also gave a viability, T/C [7] of 70.6%, a viability, T/C [8] of 91% and a viability, T/C [9] of 80.3%. The viability, T/C [10] was 80.1%, the viability, T/C [11] was 24% and the viability, T/C [12] was 12.2%. For the same compound, the viability, T/C [13] was 9.48%, the viability, T/C [14] was 14% and the viability, T/C [15] was 7.7%. For the same compound, the viability, T/C [16] was 6%, the viability, T/C [17] was 5.18% and the viability, T/C [18] was 3.25%. The viability, T/C [19] was 0.34%, the viability, T/C [20] was 0.27% and the viability, T/C [21] was 1.14%. For the same compound, the viability, T/C [22] was 0.17%, the viability, T/C [23] was 0.14% and the viability, T/C [24] was 0.19%. It also gave a viability, T/C [25] of 0.75%, a viability, T/C [26] of 0.61% and a viability, T/C [27] of 0.62%. It also gave a viability, T/C [28] of 0.51%, a viability, T/C [29] of 0.85% and a viability, T/C [30] of 0.37%. For the same compound, the viability, T/C [31] was 0.44%, the viability, T/C [32] was 0.31% and the viability, T/C [33] was 0.9%. The viability, T/C [34] was 0.36%, the viability, T/C [35] was 1.72% and the viability, T/C [36] was 0.63%.
